Source: US6699506B1, “Pharmaceutical composition with extended release of Milnacipran” (Pierre Fabre Medicament, priority 1996, dated 2004)
Values after ≈ are worked out from the molar mass of the structure shown.

Columns and labels:
noradrenaline = details: cited from earlier work
dopamine = details: cited from earlier work
serotonin = details: cited from earlier work
physchem = details: water, aqueous solubility

Structure (SMILES) | inhibition of the capture of noradrenaline (noradrenaline) | effect on dopamine (dopamine) | inhibition of the capture of serotonin (serotonin) | bioavailability (in vivo) | half-life (in vivo) | solubility (physchem) | activity of isomeric forms (activity of the isomers)
CCN(CC)C(=O)C1(c2ccccc2)CC1CN (stereo not shown) [Milnacipran] | mixed inhibition | no effect | mixed inhibition | > 85% | 7 to 9 h | 800 mg/mL (≈ 3250 mM) | 
CCN(CC)C(=O)[C@@]1(c2ccccc2)C[C@H]1CN [dextrorotatory form] |  |  |  |  |  |  | more active than the levorotatory form
